Converted amounts (≈) assume the structure as drawn. Where two headings read alike, the source gives them in different places.
Experiments:
gut microbiome [1] = assay: Germ-free humanized mouse study, 16S rRNA gut microbiome analysis; format: in vivo; settings: humanized germ-free mice
Text: Germ-free (GF) mice (six per group) were randomly assigned to IBZ, VAN, FDX, MTZ, or control groups.
An oral gavage of healthy human-derived fecal slurry was given to GF mice. The humanized mice were housed in a sterile biological safety cabinet (BSC) for one week to allow the donor gut microbiome to establish. Humanized mice were then moved to sterile, micro-isolator cages and pellet chow diet was exchanged for a powder chow diet. The humanized mice were then allowed one week to acclimate to the powder chow diet. In addition, a stool sample was obtained prior to the change in diet (baseline 1). At day 14, once the mice acclimated to the powder chow diet, a second baseline stool sample was obtained (baseline 2) and antibiotic treatment was started. The appropriate antibiotics were added to the powder chow diet for 10 days. At day 16, two days after beginning antibiotic treatment, another stool sample was collected (ABX-1). During the 10-day antibiotic treatment, powder chow dishes were refilled each day with fresh chow containing the randomly assigned antibiotic. Stool samples were again collected at day 24 (ABX-2).
To assess antibiotic microbiome effect, 16S rRNA metagenomics was used on stool samples that were collected at day 0 (baseline 1 and baseline 2) and after 2 and […] of treatment with antibiotics. Bulk DNA was extracted from stool samples using the DNeasy® PowerSoil® Kit. The V4 region of the bacterial 16S rRNA gene was sequenced using the Illumina MiSeq and CLC Genomics Workbench. Raw sequencing reads were processed and curated using the mothur (v.1.48.0) software package and the mothur MiSeq SOP was followed as outlined in Schloss, P. D., et al., Introducing mothur: open-source, platform-independent, community supported software for describing and comparing microbial communities. Appl Environ Microbiol, 2009. 75(23): p. 7537-41 (see also, Kozich, J. J., et al., Development of a dual-index sequencing strategy and curation pipeline for analyzing amplicon sequence data on the MiSeq Illumina sequencing platform. Appl Environ Microbiol, 2013. 79(17): p. 5112-20.). All data visualization and statistical analysis were performed using R studio (R Core Team (2023). R: A Language and Environment for Statistical Computing, Vienna, Austria.).

[2] = system: C. difficile biofilms (strains R20291, CD 630); assay: C. difficile in vitro biofilm studies (MIC, MBIC, CFU/mL, Crystal Violet biomass); format: cell-based; settings: for MBIC: Minimum Biofilm Inhibitory Concentration; for MIC: Clostridioides difficile
Method: A basic flow chart outlining the experimental procedure used in these studies may be seen in FIG. 14. Briefly, C. difficile laboratory strain R20291 was grown in Brain heart infusion-supplemented (BHIS) medium. […] Biofilm formation was established via anaerobic incubation of the cultures at 37° C. for 24 hrs. Early biofilm formation was established at 4 hrs, whereas late biofilm formation was established at 24 hrs, 48 hrs, and 72 hrs. Following biofilm formation, the BHIS medium was removed and replaced with fresh media comprising no antibiotic (control), ibezapolstat (IBZ), Fidaxomicin (FDX), or metronidazole (MTZ). The cultures were then anaerobically incubated for 24 hrs or subjected to time course tests. Biofilm biomass was measured using Crystal Violet staining. […] Data was measured and recorded using Cytation 3 calibrated to read at A570. Data was analyzed by comparing percent growth of antibiotic treated cultures with controls.

[3] = system: C. difficile clinical isolates; settings: for MIC: Clostridioides difficile, 24 h, agar dilution; for MIC range: across the twelve clinical isolates tested
gut microbiome [4] = assay: Phase 1 healthy volunteer study, gut microbiome (metagenomics, qPCR); format: in vivo, human; settings: phase 1 healthy volunteer study; treatment over 10 days; shotgun metagenomic sequencing
[5] = system: bacterial infections in the gut; settings: treatment of bacterial infections in the gut; cited from earlier work
[6] = antibiotic in powder chow 10 days
[7] = antibiotic in powder chow 10 days, compared to Baseline 2 (D14)
[8] = C. diff. strain R20291, read-out: MIC
[9] = C. difficile clinical isolate MT 4802
[10] = C. difficile clinical isolate MT 5071
[11] = C. difficile clinical isolate MT 5342
[12] = C. difficile clinical isolate MT 5364
[13] = C. difficile clinical isolate MT 5382
[14] = C. difficile clinical isolate MT 5426
[15] = C. difficile clinical isolate MT 5493
[16] = C. difficile clinical isolate MT 5515
[17] = C. difficile clinical isolate MT 5529
[18] = C. difficile clinical isolate MT 5536
[19] = C. difficile clinical isolate SH 1132

SMILES | Average Change in Metric ± SD, Bray-Curtis Dissim. to Baseline 1 (gut microbiome [1]; [6]) | Average Change in Metric ± SD, Bray-Curtis Dissim. to Baseline 2 (gut microbiome [1]; [6]) | Avg. Change in Relative Abundance ± SD, Proteobacteria (gut microbiome [1]; [7]) | MBIC ([2]; C. diff. strain R20291) [µg/mL] | MIC [2, 8] [µg/mL] | MIC [3, 9] [µg/mL] | MIC [3, 10] [µg/mL] | MIC [3, 11] [µg/mL] | MIC [3, 12] [µg/mL] | MIC [3, 13] [µg/mL] | MIC [3, 14] [µg/mL] | MIC [3, 15] [µg/mL] | MIC [3, 16] [µg/mL] | MIC [3, 17] [µg/mL] | MIC [3, 18] [µg/mL] | MIC [3, 19] [µg/mL] | MIC range [3] [µg/mL] | relative abundance of Proteobacteria (in words) (gut microbiome [1]; phylum level) | relative abundance of Verrucomicrobiota (in words) (gut microbiome [1]; phylum level) | also measured
CCc1c(Cl)c(O)c(Cl)c(O)c1C(=O)O[C@H]1[C@H](O)[C@H](OC)[C@H](OC/C2=C\C=C\C[C@H](O)/C(C)=C/[C@H](CC)[C@@H](O[C@@H]3OC(C)(C)[C@@H](OC(=O)C(C)C)[C@H](O)[C@@H]3O)/C(C)=C/C(C)=C/C[C@@H]([C@@H](C)O)OC2=O)O[C@@H]1C [Fidaxomicin, fidaxomicin] | 0.62 ± 0.02 | 0.39 ± 0.03 | 10.2% ± 3% | 0.125 | 0.06 (≈ 0.0567 µM) | 0.006 (≈ 0.00567 µM) | 1 (≈ 0.945 µM) | 1 (≈ 0.945 µM) | 1 (≈ 0.945 µM) | 1 (≈ 0.945 µM) | 0.5 (≈ 0.473 µM) | 1 (≈ 0.945 µM) | 2 (≈ 1.89 µM) | 0.5 (≈ 0.473 µM) | 1 (≈ 0.945 µM) | 0.5 (≈ 0.473 µM) | <0.03125 to 2 |  |  | change of Firmicutes (in words) (gut microbiome [1]; phylum level): increased; proportional change of Bacteroidetes (in words) (gut microbiome [1]; phylum level): proportional increases; Avg. Change in Relative Abundance ± SD, Bacteroidetes (gut microbiome [1]; [7]): 9.9% ± 2.9%; Avg. Change in Relative Abundance ± SD, Verrucomicrobia (Akkermansia) (gut microbiome [1]; [7]): 3.6% ± 2.8%
Cc1ncc([N+](=O)[O-])n1CCO [Metronidazole, metronidazole] | 0.92 ± 0.02 | 0.92 ± 0.04 | 15.1% ± 3.8% | 0.5 | 0.5 (≈ 2.92 µM) | 0.25 (≈ 1.46 µM) | 1 (≈ 5.84 µM) | 2 (≈ 11.7 µM) | 2 (≈ 11.7 µM) | 2 (≈ 11.7 µM) | 4 (≈ 23.4 µM) | 2 (≈ 11.7 µM) | 4 (≈ 23.4 µM) | 2 (≈ 11.7 µM) | 0.25 (≈ 1.46 µM) | 1 (≈ 5.84 µM) | 0.25 to 8 | proportional increases | increased | relative abundance of Proteobacteria (in words) (gut microbiome [1]; phylum level, listed as MTZ): increased; Avg. Change in Relative Abundance ± SD, Firmicutes (gut microbiome [1]; [7]): 36.5% ± 5.1%; Eagle effect in 24-hour biofilms ([2]; R20291 or CD 630, at higher concentrations): Eagle effect was observed
CN[C@H](CC(C)C)C(=O)N[C@H]1C(=O)N[C@@H](CC(N)=O)C(=O)N[C@H]2C(=O)N[C@H]3C(=O)N[C@H](C(=O)N[C@H](C(=O)O)c4cc(O)cc(O)c4-c4cc3ccc4O)[C@H](O)c3ccc(c(Cl)c3)Oc3cc2cc(c3O[C@@H]2O[C@H](CO)[C@@H](O)[C@H](O)[C@H]2O[C@H]2C[C@](C)(N)[C@H](O)[C@H](C)O2)Oc2ccc(cc2Cl)[C@H]1O [Vancomycin, vancomycin] | 0.84 ± 0.02 | 0.75 ± 0.03 | 37.2% ± 2.8% | 1 |  | 1 (≈ 0.69 µM) | 4 (≈ 2.76 µM) | 8 (≈ 5.52 µM) | 4 (≈ 2.76 µM) | 1 (≈ 0.69 µM) | 4 (≈ 2.76 µM) | 1 (≈ 0.69 µM) | 4 (≈ 2.76 µM) | 1 (≈ 0.69 µM) | 2 (≈ 1.38 µM) | 4 (≈ 2.76 µM) | 1 to 16 | proportional increases | increased | microbiome profile of treated subjects (gut microbiome [4]): larger proportion of Proteobacteria; relative abundance of Proteobacteria (in words) (gut microbiome [1]; phylum level, listed as VAN): increased; C. diff growth (CFU/mL) and biomass at sub-MIC compared to control ([2]; 0.4× MIC): reduced; growth in early biofilms at supra-MIC ([2]; 40× MIC, after 48 hours of treatment): reduced growth; MIC [2]: 1 µg/mL (≈ 0.69 µM); patients having a recurring infection after treatment is discontinued [5]: 20-25%; MIC ([3]; C. difficile clinical isolate MT 4883): 8 µg/mL (≈ 5.52 µM)

— patent publication US20260144796A1, “Compounds and Methods for Improving Health” (Acurx Pharmaceuticals, Inc., priority 2022, published 2026)
